{"source": "patent US20220265635A1", "about": "“TREATMENT OF NEUROLOGICAL DISEASE” (Aclipse One Inc., priority 2018, published 2022)", "key": {"[1]": {"system": "heat shock protein Hspa8 and Hspa1a", "experiment": "Example 3 in vivo pharmacodynamic study via oral dosing: RT-qPCR of brain", "conditions": "mouse brain, 25 mg/kg oral once daily 4 days; for Relative expression of Hspa1a normalized with Group 1 / Relative expression of Hspa8 normalized with Group 1: normalized to Actb", "description": "Wildtype mice were dosed orally at 25 mg/kg (6aS)-6-methyl-5,6,6a,7-tetrahydro-4H-dibenzo[de,g]quinoline-10,11-diol for 4 days once daily.\nA total of 36 mice were randomly divided into twelve groups. Each group had 3 mice. After oral administration of (6aS)-6-methyl-5,6,6a,7-tetrahydro-4H-dibenzo[de,g]quinoline-10,11-diol once a day for 4 consecutive days, brains of mice in each group were sampled individually at the time point of 0, 5, 15, 30 min, 1, 2, 3, 4, 8, 12, 24 and 48 hour post the last oral dose. A quarter of whole brain from each mouse in every time group underwent a real-time quantitative polymerase chain reaction (RT-qPCR) analysis. Before RNA extraction, brain tissues were frozen immediately in liquid nitrogen, and were transferred to −80° C. until further use.\nTotal RNA from 36 frozen brain samples were extracted using Trizol reagent (Invitrogen, Carlsbad, Calif., USA, 15596018) according to the manufacturer's instructions. After extraction, the integrity of total RNA was be checked by 1% agarose gel staining with ethidium bromide as well as by nanodrop (Thermo Fisher, USA). Then, 2 μg of total RNA was used for reverse transcription by M-MLV Reverse Transcriptase (Invitrogen, 28025-013) with gDNA removal (NEB, M0303S). qRT-PCR analysis was performed using LightCycler® 480 Probe Master (4887301001, Roche, Basel, Switzerland) and the Roche LightCycler480 (Roche). The data from triplicate experiments were subjected to statistical analysis and the target genes were normalized against the levels of actin beta (Actb) mRNA. The primers are listed as follows: […]"}, "HSF1 regulated genes": {"system": "HSF1 regulated genes", "experiment": "Example 1 in vivo pharmacodynamic study via subcutaneous dosing: expression of genes upregulated by HSF1 activation", "set-up": "species or system mouse", "description": "(§1) Wildtype mice (3 per group) were dosed subcutaneously at 0, 0.5, 1.5, 5 and 10 mg/kg (6aS)-6-methyl-5,6,6a,7-tetrahydro-4H-dibenzo[de,g]quinoline-10,11-diol hydrochloride for 7 days once daily. One animal in the 10 mg/kg dosing group was actually dosed 15 mg/kg on Day 1. To prepare the dosing solutions, (6aS)-6-methyl-5,6,6a,7-tetrahydro-4H-dibenzo[de,g]quinoline-10,11-diol was pre-weighed into bijous and stored in foil."}, "dopamine receptors": {"system": "dopamine receptors", "conditions": "background description; cited from earlier work"}, "TDP-43^Q331K mouse model": {"system": "TDP-43^Q331K mouse model", "experiment": "Example 4 catwalk gait analysis", "type": "in vivo", "conditions": "TDP-43^Q331K mice", "description": "Following genotyping, transgenic females were block randomized into three different dosing groups: vehicle once daily, 2.5 mg/kg (6aS)-6-methyl-5,6,6a,7-tetrahydro-4H-dibenzo[de,g]quinoline-10,11-diol twice daily and 5 mg/kg (6aS)-6-methyl-5,6,6a,7-tetrahydro-4H-dibenzo[de,g]quinoline-10,11-diol once daily. The doses were selected based on results of previous internal studies. Animals were weighed daily before dosing and dosed subcutaneously at 10 ml/kg with a solution of 0.5 mg/ml (6aS)-6-methyl-5,6,6a,7-tetrahydro-4H-dibenzo[de,g]quinoline-10,11-diol for the 5 mg/kg dose and 0.25 mg/ml for the 2.5 mg/kg dose. Where animals were dosed twice a day, the doses were at least 6 hours apart and the dosing solution was freshly made for the second dose of the day.\nThe study was designed with two main cohorts of mice. One cohort was dosed from 25 days of age until 6 months of age and mice had behavioral testing throughout the study and consisted of 14 mice per group. The other satellite cohort was dosed from 25 days of age until 3 months of age, with no behavioral testing and consisted of 6 mice per group for target engagement and histological assessment. Behavioral tests that were carried out during the experiment were: accelerated rotarod test, gait analysis, and electrophysiology.\nGait analysis was carried out at 3 months and 6 months of age using the catwalk gait analysis system 7.1 (Noldus Information Technology B.V., Netherlands) and analyzed using Catwalk software 7.1. The software calculated many different gait parameters such as stride length, base of support (BOS) and swing time as well as step patterns and percentage of time spent on 2, 3 or 4 paws.\nOn the day of the test mice were placed on the glass runway and allowed to run freely back and forth. About 6 straight, consistent runs were recorded by the camera for each mouse. The 3 best runs with the closest total run time were selected for each mouse for analysis. For these three runs, the paw prints were labelled in successive frames using the software, which then analyzed multiple gait parameters for each of the runs. Using Excel, the average of all three runs per mouse was calculated, followed by the average per group for each of the gait parameters.\nGait analysis was performed using the catwalk system (Noldus) at both 3 and 6 months of age in 8 mice per group per timepoint. Traditionally in this model, the base of support increases with age, as shown in FIG. 9-13, represented the waddling or ‘swimming’ gait described in this strain."}, "NRF2": {"system": "NRF2", "experiment": "Example 1 in vivo pharmacodynamic study via subcutaneous dosing: expression of genes upregulated by NRF2 activation", "set-up": "species or system mouse", "conditions": "wildtype mice", "description": "as §1"}, "[2]": {"conditions": "Group 3 (15 min) post last dose"}, "[3]": {"conditions": "Group 4 (30 min) post last dose"}, "[4]": {"conditions": "Group 10 (12 Hr) post last dose"}, "[5]": {"conditions": "Group 11 (24 Hr) post last dose"}, "[6]": {"conditions": "Group 12 (48 Hr) post last dose"}, "[7]": {"conditions": "wildtype mice, 1.5 mg/kg s.c. once daily 7 days, 24 hours post final dose, compared to Actb"}, "[8]": {"conditions": "wildtype mice, 5 mg/kg s.c. once daily 7 days, 24 hours post final dose, compared to Gapdh"}, "[9]": {"conditions": "wildtype mice, 10 mg/kg s.c. once daily 7 days, 6 hours post final dose, compared to Actb"}, "[10]": {"conditions": "wildtype mice, 10 mg/kg s.c. once daily 7 days, 6 hours post final dose, compared to Gapdh"}, "[11]": {"conditions": "5 mg/kg s.c. once daily 7 days, 24 hours post final dose, compared to Gapdh"}, "[12]": {"conditions": "10 mg/kg s.c. once daily 7 days, 24 hours post final dose, compared to Actb"}}, "note": "Marks after values point to notes of the source that are not given here."}
{"compound": "CN1CCc2cccc3c2[C@@H]1Cc1ccc(O)c(O)c1-3", "note": "[(6aS)-6-methyl-5,6,6a,7-tetrahydro-4H-dibenzo[de,g]quinoline-10,11-diol]", "values": [{"measurement": "Relative expression of Hspa1a normalized with Group 1", "setting": "[1]; Group 1 (0 min) post last dose", "result": 1.00}, {"measurement": "Relative expression of Hspa8 normalized with Group 1", "setting": "[1]; Group 1 (0 min) post last dose", "result": 1.00}, {"measurement": "Relative expression of Hspa1a normalized with Group 1", "setting": "[1]; Group 2 (5 min) post last dose", "result": 0.96}, {"measurement": "Relative expression of Hspa8 normalized with Group 1", "setting": "[1]; Group 2 (5 min) post last dose", "result": 0.85}, {"measurement": "Relative expression of Hspa1a normalized with Group 1", "setting": "[1]; [2]", "result": 1.05}, {"measurement": "Relative expression of Hspa8 normalized with Group 1", "setting": "[1]; [2]", "result": 0.89}, {"measurement": "Relative expression of Hspa1a normalized with Group 1", "setting": "[1]; [3]", "result": 1.06}, {"measurement": "Relative expression of Hspa8 normalized with Group 1", "setting": "[1]; [3]", "result": 0.91}, {"measurement": "Relative expression of Hspa1a normalized with Group 1", "setting": "[1]; Group 5 (1 Hr) post last dose", "result": 0.90}, {"measurement": "Relative expression of Hspa8 normalized with Group 1", "setting": "[1]; Group 5 (1 Hr) post last dose", "result": 0.92}, {"measurement": "Relative expression of Hspa1a normalized with Group 1", "setting": "[1]; Group 6 (2 Hr) post last dose", "result": 1.02}, {"measurement": "Relative expression of Hspa8 normalized with Group 1", "setting": "[1]; Group 6 (2 Hr) post last dose", "result": 0.96}, {"measurement": "Relative expression of Hspa1a normalized with Group 1", "setting": "[1]; Group 7 (3 Hr) post last dose", "result": 1.10}, {"measurement": "Relative expression of Hspa8 normalized with Group 1", "setting": "[1]; Group 7 (3 Hr) post last dose", "result": 0.96}, {"measurement": "Relative expression of Hspa1a normalized with Group 1", "setting": "[1]; Group 8 (4 Hr) post last dose", "result": 1.09}, {"measurement": "Relative expression of Hspa8 normalized with Group 1", "setting": "[1]; Group 8 (4 Hr) post last dose", "result": 1.01}, {"measurement": "Relative expression of Hspa1a normalized with Group 1", "setting": "[1]; Group 9 (8 Hr) post last dose", "result": "2.25*"}, {"measurement": "Relative expression of Hspa8 normalized with Group 1", "setting": "[1]; Group 9 (8 Hr) post last dose", "result": 1.11}, {"measurement": "Relative expression of Hspa1a normalized with Group 1", "setting": "[1]; [4]", "result": "1.33*"}, {"measurement": "Relative expression of Hspa8 normalized with Group 1", "setting": "[1]; [4]", "result": "1.17**"}, {"measurement": "Relative expression of Hspa1a normalized with Group 1", "setting": "[1]; [5]", "result": 1.04}, {"measurement": "Relative expression of Hspa8 normalized with Group 1", "setting": "[1]; [5]", "result": "1.14**"}, {"measurement": "Relative expression of Hspa1a normalized with Group 1", "setting": "[1]; [6]", "result": 1.04}, {"measurement": "Relative expression of Hspa8 normalized with Group 1", "setting": "[1]; [6]", "result": 0.99}, {"measurement": "Hspa1a mRNA level compared with group 1 (in words)", "setting": "[1]; group 9 and 10 (8 Hr, 12 Hr)", "result": "significant increase"}, {"measurement": "mRNA expression levels of Hspa8 compared with group 1 (in words)", "setting": "[1]; group 10 and 11 (12 Hr, 24 Hr)", "result": "slight increase"}, {"measurement": "group in which Hspa1a mRNA level reached a peak", "setting": "[1]; group 9 = 8 Hr post last dose", "result": "group 9"}, {"measurement": "dose at which HSF1 regulated genes are activated (Hspa1a and Dnajb1 gene inductions)", "setting": "HSF1 regulated genes; mice, s.c. once daily 7 days, Example 1", "result": "≥ 0.5", "unit": "mg/kg"}, {"measurement": "Hspa1a gene induction", "setting": "HSF1 regulated genes; [7]", "result": 2.3, "unit": "fold"}, {"measurement": "Pgc1a gene induction", "setting": "HSF1 regulated genes; [7]", "result": 1.7, "unit": "fold"}, {"measurement": "Hspa1a gene induction", "setting": "HSF1 regulated genes; [8]", "result": 2.3, "unit": "fold"}, {"measurement": "Pgc1a gene induction", "setting": "HSF1 regulated genes; [8]", "result": 1.7, "unit": "fold"}, {"measurement": "Hspa1a gene induction", "setting": "HSF1 regulated genes; [9]", "result": 2.0, "unit": "fold"}, {"measurement": "Pgc1a gene induction", "setting": "HSF1 regulated genes; [9]", "result": 1.5, "unit": "fold"}, {"measurement": "Dnajb1 gene induction", "setting": "HSF1 regulated genes; [10]", "result": 1.3, "unit": "fold"}, {"measurement": "Hspa1a gene induction", "setting": "HSF1 regulated genes; [10]", "result": 2.2, "unit": "fold"}, {"measurement": "Pgc1a gene induction", "setting": "HSF1 regulated genes; wildtype mice, repeated dose of 5 mg/kg s.c. once daily 7 days, compared to Gapdh (6 hours post final dose per preceding sentence)", "result": 1.8, "unit": "fold"}, {"measurement": "activity on dopamine receptors (in words)", "setting": "dopamine receptors", "result": "weak dopamine antagonist"}, {"measurement": "gait parameters (time spent on diagonal paws, on three or four paws) from 3 to 6 months", "setting": "TDP-43^Q331K mouse model; 2.5 mg/kg dosing group", "result": "relatively stable"}, {"measurement": "change in percentage of time spent on 3 paws between 3 months and 6 months of age, compared to vehicle", "setting": "TDP-43^Q331K mouse model; 2.5 mg/kg twice daily", "result": "significant decrease"}, {"measurement": "change in percentage of time spent on diagonal paws between 3 months and 6 months of age", "setting": "TDP-43^Q331K mouse model; 2.5 mg/kg twice daily, significant difference to vehicle, which has a decrease", "result": "slight increase"}, {"measurement": "gait parameters (time spent on diagonal paws, on three or four paws) from 3 to 6 months", "setting": "TDP-43^Q331K mouse model; 5 mg/kg dosing group", "result": "relatively stable"}, {"measurement": "effect on swimming gait (base of support increasing with age)", "setting": "TDP-43^Q331K mouse model; 3 and 6 months of age", "result": "did not limit this swimming gait"}, {"measurement": "Gclm gene induction", "setting": "NRF2; 5 mg/kg s.c. once daily 7 days, 6 hours post final dose, compared to Gapdh", "result": 1.5, "unit": "fold"}, {"measurement": "Gclm gene induction", "setting": "NRF2; [11]", "result": 1.5, "unit": "fold"}, {"measurement": "Nqo1 gene induction", "setting": "NRF2; [11]", "result": 1.3, "unit": "fold"}, {"measurement": "Gclm gene induction", "setting": "NRF2; 10 mg/kg s.c. once daily 7 days, 6 hours post final dose, compared to Actb", "result": 1.4, "unit": "fold"}, {"measurement": "Gclm gene induction", "setting": "NRF2; [12]", "result": 1.2, "unit": "fold"}, {"measurement": "NRF2-responsive gene induction", "setting": "NRF2; [12]", "result": 1.4, "unit": "fold"}]}
